Like-named read-outs stand apart in the source and are kept apart here.
System: Angiotensin II (AII) vasopressor response
Experiment: AII Challenge: antagonism of angiotensin II vasopressor response in conscious spontaneously hypertensive rats
Format: in vivo, rat (male okamoto-Aoki SHR)
Settings: for inhibition in vivo at 3 mg/kg: Rattus norvegicus, read-out: Inhibition; for Change: single SHR
Procedure, shortened: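 Conscious male SHR (16–20 weeks, ~330 g) cannulated under local procaine, blood pressure recorded via transducer. Angiotensin II (human) 0.05 and 0.1 ug/kg i.v. given before and after test compound dosed i.v., i.p. or orally; response measured as rise in systolic pressure (mmHg).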

[1] = iv, 0.5 h, SHR n=2, 3 mg/kg I.V., AII 0.05 mcg/kg IV, 30 min post dose
[2] = iv, 0.5 h, SHR n=2, 3 mg/kg I.V., AII 0.1 mcg/kg IV, 30 min post dose
[3] = iv, 1 h, SHR n=2, 3 mg/kg I.V., AII 0.05 mcg/kg IV, 60 min post dose
[4] = iv, 1 h, SHR n=2, 3 mg/kg I.V., AII 0.1 mcg/kg IV, 60 min post dose
[5] = iv, 2 h, SHR n=2, 3 mg/kg I.V., AII 0.05 mcg/kg IV, 120 min post dose
[6] = iv, 2 h, SHR n=2, 3 mg/kg I.V., AII 0.1 mcg/kg IV, 120 min post dose
[7] = iv, 3 h, SHR n=2, 3 mg/kg I.V., AII 0.1 mcg/kg IV, 180 min post dose
[8] = iv, 4 h, SHR n=2, 3 mg/kg I.V., AII 0.05 mcg/kg IV, 240 min post dose
[9] = iv, 5 h, SHR n=2, 3 mg/kg I.V., AII 0.05 mcg/kg IV, 300 min post dose
[10] = iv, 5 h, SHR n=2, 3 mg/kg I.V., AII 0.1 mcg/kg IV, 300 min post dose
[11] = iv, […], SHR n=2, 3 mg/kg I.V., AII 0.05 mcg/kg IV, 90 min post dose
[12] = iv, […], SHR n=2, 3 mg/kg I.V., AII 0.1 mcg/kg IV, 90 min post dose
[13] = po, 0.5 h, SHR n=2, 3 mg/kg P.O., AII 0.05 mcg/kg IV, 30 min post dose
[14] = po, 0.5 h, SHR n=2, 3 mg/kg P.O., AII 0.1 mcg/kg IV, 30 min post dose
[15] = po, 1 h, SHR n=2, 3 mg/kg P.O., AII 0.05 mcg/kg IV, 60 min post dose
[16] = po, 1 h, SHR n=2, 3 mg/kg P.O., AII 0.1 mcg/kg IV, 60 min post dose
[17] = po, 2 h, SHR n=2, 3 mg/kg P.O., AII 0.05 mcg/kg IV, 120 min post dose
[18] = po, 2 h, SHR n=2, 3 mg/kg P.O., AII 0.1 mcg/kg IV, 120 min post dose
[19] = po, 3 h, SHR n=2, 3 mg/kg P.O., AII 0.05 mcg/kg IV, 180 min post dose
[20] = po, 3 h, SHR n=2, 3 mg/kg P.O., AII 0.1 mcg/kg IV, 180 min post dose
[21] = po, […], SHR n=2, 3 mg/kg P.O., AII 0.05 mcg/kg IV, 90 min post dose
[22] = po, […], SHR n=2, 3 mg/kg P.O., AII 0.1 mcg/kg IV, 90 min post dose
[23] = SHR n=2, 3 mg/kg I.V., AII 0.05 mcg/kg IV, 30 min post dose
[24] = SHR n=2, 3 mg/kg I.V., AII 0.05 mcg/kg IV, 60 min post dose
[25] = SHR n=2, 3 mg/kg I.V., AII 0.05 mcg/kg IV, 90 min post dose
[26] = SHR n=2, 3 mg/kg I.V., AII 0.05 mcg/kg IV, 120 min post dose
[27] = SHR n=2, 3 mg/kg I.V., AII 0.05 mcg/kg IV, 180 min post dose
[28] = SHR n=2, 3 mg/kg I.V., AII 0.05 mcg/kg IV, 240 min post dose
[29] = SHR n=2, 3 mg/kg I.V., AII 0.05 mcg/kg IV, 300 min post dose
[30] = SHR n=2, 3 mg/kg I.V., AII 0.1 mcg/kg IV, 30 min post dose
[31] = SHR n=2, 3 mg/kg I.V., AII 0.1 mcg/kg IV, 60 min post dose
[32] = SHR n=2, 3 mg/kg I.V., AII 0.1 mcg/kg IV, 90 min post dose
[33] = SHR n=2, 3 mg/kg I.V., AII 0.1 mcg/kg IV, 120 min post dose
[34] = SHR n=2, 3 mg/kg I.V., AII 0.1 mcg/kg IV, 180 min post dose
[35] = SHR n=2, 3 mg/kg I.V., AII 0.1 mcg/kg IV, 240 min post dose
[36] = SHR n=2, 3 mg/kg I.V., AII 0.1 mcg/kg IV, 300 min post dose
[37] = SHR n=2, 3 mg/kg P.O., AII 0.05 mcg/kg IV, 30 min post dose
[38] = SHR n=2, 3 mg/kg P.O., AII 0.05 mcg/kg IV, 60 min post dose
[39] = SHR n=2, 3 mg/kg P.O., AII 0.05 mcg/kg IV, 90 min post dose
[40] = SHR n=2, 3 mg/kg P.O., AII 0.05 mcg/kg IV, 120 min post dose
[41] = SHR n=2, 3 mg/kg P.O., AII 0.05 mcg/kg IV, 180 min post dose
[42] = SHR n=2, 3 mg/kg P.O., AII 0.1 mcg/kg IV, 30 min post dose
[43] = SHR n=2, 3 mg/kg P.O., AII 0.1 mcg/kg IV, 60 min post dose
[44] = SHR n=2, 3 mg/kg P.O., AII 0.1 mcg/kg IV, 90 min post dose
[45] = SHR n=2, 3 mg/kg P.O., AII 0.1 mcg/kg IV, 120 min post dose
[46] = SHR n=2, 3 mg/kg P.O., AII 0.1 mcg/kg IV, 180 min post dose
[47] = 3 mg/kg I.V., AII 0.05 mcg/kg IV, 60 min post dose

SMILES: CCCCc1nc2ccc([C@H]3[C@@H]4C(=O)CC[C@@H]4ON3Cc3ccccc3)cc2c(=O)n1Cc1ccc(-c2ccccc2-c2nnn[nH]2)cc1 (relative stereo) [Example 55]
- inhibition in vivo at 3 mg/kg [1]: 97%
- inhibition in vivo at 3 mg/kg [2]: 95%
- inhibition in vivo at 3 mg/kg [3]: 100%
- inhibition in vivo at 3 mg/kg [4]: 95%
- inhibition in vivo at 3 mg/kg [5]: 97%
- inhibition in vivo at 3 mg/kg [6]: 94%
- inhibition in vivo at 3 mg/kg [7]: 77%
- inhibition in vivo at 3 mg/kg [8]: 89%
- inhibition in vivo at 3 mg/kg (iv, 4 h): 82%
- inhibition in vivo at 3 mg/kg [9]: 61%
- inhibition in vivo at 3 mg/kg [10]: 50%
- inhibition in vivo at 3 mg/kg [11]: 89%
- inhibition in vivo at 3 mg/kg [12]: 91%
- inhibition in vivo at 3 mg/kg [13]: 21%
- inhibition in vivo at 3 mg/kg [14]: 17%
- inhibition in vivo at 3 mg/kg [15]: 7%
- inhibition in vivo at 3 mg/kg [16]: 11%
- inhibition in vivo at 3 mg/kg [17]: 21%
- inhibition in vivo at 3 mg/kg [18]: 39%
- inhibition in vivo at 3 mg/kg [19]: 14%
- inhibition in vivo at 3 mg/kg [20]: 28%
- inhibition in vivo at 3 mg/kg [21]: 14%
- inhibition in vivo at 3 mg/kg [22]: 17%
- Average Change [23]: 1.5 mmHg
- Average Change [24]: 0 mmHg
- Average Change [25]: 5 mmHg
- Average Change [26]: 1.5 mmHg
- Average Change [27]: 2.5 mmHg
- Average Change [28]: 5 mmHg
- Average Change [29]: 17.5 mmHg
- Average Change [30]: 2.5 mmHg
- Average Change [31]: 2.5 mmHg
- Average Change [32]: 5 mmHg
- Average Change [33]: 3.5 mmHg
- Average Change [34]: 12.5 mmHg
- Average Change [35]: 10 mmHg
- Average Change [36]: 27.5 mmHg
- Average Change [37]: 27.5 mmHg
- Average Change [38]: 32.5 mmHg
- Average Change [39]: 30 mmHg
- Average Change [40]: 27.5 mmHg
- Average Change [41]: 30 mmHg
- Average Change [42]: 37.5 mmHg
- Average Change [43]: 40 mmHg
- Average Change [44]: 37.5 mmHg
- Average Change [45]: 27.5 mmHg
- Average Change [46]: 32.5 mmHg
- Change [47]: 0 mmHg
- Change (3 mg/kg I.V., AII 0.05 mcg/kg IV, 90 min post dose): 5 mmHg
- Change (3 mg/kg I.V., AII 0.05 mcg/kg IV, 240 min post dose): 5 mmHg
- Change (3 mg/kg I.V., AII 0.1 mcg/kg IV, 90 min post dose): 5 mmHg
- Change (3 mg/kg I.V., AII 0.1 mcg/kg IV, 240 min post dose): 10 mmHg
- Change (3 mg/kg P.O., AII 0.1 mcg/kg IV, 60 min post dose): 40 mmHg

SMILES: CCCCc1nc2ccc([C@H]3[C@@H]4C(=O)OC[C@@H]4ON3Cc3ccccc3)cc2c(=O)n1Cc1ccc(-c2ccccc2-c2nnn[nH]2)cc1 (relative stereo) [Example 57]
- inhibition in vivo at 3 mg/kg [1]: 100%
- inhibition in vivo at 3 mg/kg [2]: 99%
- inhibition in vivo at 3 mg/kg [3]: 100%
- inhibition in vivo at 3 mg/kg [4]: 88%
- inhibition in vivo at 3 mg/kg [5]: 90%
- inhibition in vivo at 3 mg/kg [6]: 81%
- inhibition in vivo at 3 mg/kg (iv, 3 h, SHR n=2, 3 mg/kg I.V., AII 0.05 mcg/kg IV, 180 min post dose): 61%
- inhibition in vivo at 3 mg/kg [7]: 75%
- inhibition in vivo at 3 mg/kg [8]: 77%
- inhibition in vivo at 3 mg/kg (iv, 4 h, SHR n=2, 3 mg/kg I.V., AII 0.1 mcg/kg IV, 240 min post dose): 56%
- inhibition in vivo at 3 mg/kg [9]: 71%
- inhibition in vivo at 3 mg/kg [10]: 38%
- inhibition in vivo at 3 mg/kg [11]: 93%
- inhibition in vivo at 3 mg/kg [12]: 75%
- inhibition in vivo at 3 mg/kg [13]: 34%
- inhibition in vivo at 3 mg/kg [14]: 37%
- inhibition in vivo at 3 mg/kg [15]: 67%
- inhibition in vivo at 3 mg/kg [16]: 53%
- inhibition in vivo at 3 mg/kg [17]: 41%
- inhibition in vivo at 3 mg/kg [18]: 63%
- inhibition in vivo at 3 mg/kg [19]: 11%
- inhibition in vivo at 3 mg/kg [20]: 53%
- inhibition in vivo at 3 mg/kg [21]: 47%
- inhibition in vivo at 3 mg/kg [22]: 47%
- Average Change [23]: 0 mmHg
- Average Change [24]: 0 mmHg
- Average Change [25]: 2.5 mmHg
- Average Change [26]: 3.5 mmHg
- Average Change [27]: 13.5 mmHg
- Average Change [28]: 8 mmHg
- Average Change [29]: 10 mmHg
- Average Change [30]: 0.5 mmHg
- Average Change [31]: 5 mmHg
- Average Change [32]: 10 mmHg
- Average Change [33]: 7.5 mmHg
- Average Change [34]: 10 mmHg
- Average Change [35]: 17.5 mmHg
- Average Change [36]: 25 mmHg
- Average Change [37]: 25 mmHg
- Average Change [38]: 12.5 mmHg
- Average Change [39]: 20 mmHg
- Average Change [40]: 22.5 mmHg
- Average Change [41]: 34 mmHg
- Average Change [42]: 30 mmHg
- Average Change [43]: 22.5 mmHg
- Average Change [44]: 25 mmHg
- Average Change [45]: 17.5 mmHg
- Average Change [46]: 22.5 mmHg
- Change (3 mg/kg I.V., AII 0.05 mcg/kg IV, 30 min post dose): 0 mmHg
- Change [47]: 0 mmHg
- Change (3 mg/kg I.V., AII 0.1 mcg/kg IV, 300 min post dose): 25 mmHg
- Change (3 mg/kg P.O., AII 0.05 mcg/kg IV, 30 min post dose): 25 mmHg
- Change (3 mg/kg P.O., AII 0.1 mcg/kg IV, 30 min post dose): 30 mmHg
